Results: publication PMC10962542, “Inhibition of Aurora‐A/N‐Myc Protein–Protein Interaction Using Peptidomimetics: Understanding the Role of Peptide Cyclization” (Chembiochem, 2023)
Like-named read-outs stand apart in the source and are kept apart here. Where a SMILES comes first, the peptide text is derived from it. Bridges are numbered along the chain shown (N, C = ends).

Columns and labels:
[1] = target: T1, N‐Myc/Aurora‐A interaction (Aurora‐A122‐403‐C290A/C393A) (Homo sapiens, UniProt O14965, C290A/C393A); experiment: competition fluorescence anisotropy (FA) assay against fluorescein labelled N‐Myc61‐89; format: binding; also: equilibrated 2 h at room temperature
T1 construct: Aurora‐A 122‐403‐C290A/C393A protein was produced as described previously; made in house
T1 sequence (O14965 122-403 C290A/C393A): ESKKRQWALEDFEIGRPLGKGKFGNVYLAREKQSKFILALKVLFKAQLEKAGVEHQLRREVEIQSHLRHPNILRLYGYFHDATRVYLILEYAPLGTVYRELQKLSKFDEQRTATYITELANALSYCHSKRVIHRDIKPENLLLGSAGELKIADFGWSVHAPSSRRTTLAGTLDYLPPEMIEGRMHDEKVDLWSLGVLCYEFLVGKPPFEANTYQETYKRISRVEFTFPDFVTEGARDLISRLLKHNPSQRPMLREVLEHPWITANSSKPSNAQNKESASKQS
Description: Fluorescence anisotropy (FA) assays: All assays were performed using 384‐well plates (Greiner Bio‐one, UK). […] All samples were prepared in 25 mM Tris, 150 mM NaCl, 5 mM MgCl2, pH 7.5, and tested in triplicate using an EnVisionTM 2103 MultiLabel plate reader (Perkin Elmer; Waltham, MA, USA). The parameters were set as follows: Excitation wavelength=480 nm (30 nm bandwidth) and emission wavelength=535 nm (30 nm bandwidth). Measured data were processed and analysed as previously described.[31] Specifically, the perpendicular intensity (P) and parallel intensity (S) were subtracted by the control values and used for calculations of intensity and anisotropy using the following Equations 1, 2, 3, 4, and 5: (1) I=2PG+S (2) r=S-PG (3) Lb=r-rmin/λrmax-r+r-rmin (4) [drawing 1] (5) y=rmax+rmin-rmax/1+(x/x0)^p
For competition FA assays, the average anisotropy and the average standard deviation of the values derived from equation (2) were calculated and fit to a sigmoidal logistic model (equation (5)) using Origin 2021. […] Results are reported as IC50±SD, with data points representing the mean of three replicates and error bars indicating the corresponding SD. Where applicable, ΔΔG was determined as follows: ΔΔG=−RT ln (ΔIC50).

[2] = circular dichroism (CD) spectroscopy; format: physicochemical; conditions: 150 mM NaCl, 5 mM MgCl2, pH 7.5, 5 °C, n=2, free‐thiol (red) samples with 5 mol equivalents TCEP; for MRE222 (mean residue ellipticity at 222 nm): 25 mM Tris, mean ± SD, SD; for % Helicity (estimated): from MRE222 by equation 7, 25 mM Tris
Description: Circular dichroism (CD): All samples were prepared in Tris buffer (25 mM Tris, 150 mM NaCl, 5 mM MgCl2, pH 7.5) with the exception of free sulfhydryl peptides, to which Tris(2‐carboxyethyl)phosphine (TCEP; 5 mol eq. relative to the peptide) was added. CD spectra were recorded using an APP Chirascan CD spectropolarimeter and 1 mm pathlength quartz cuvettes. Sample concentrations were typically 30–120 μM, as determined by UV−V absorption based on a tryptophan extinction coefficient of 5600 M^−1 cm^−1 and, for mal‐constrained variants, a maleimide coefficient of 1700 M^−1 cm^−1.[16, 32] […] Spectra were recorded in duplicate at 5 °C, over wavelengths ranging from 290 to 180 nm, with data collected every 1 nm (1 nm s^−1). A background spectrum for CD buffer alone was also recorded and background ellipticity values were subtracted from raw sample ellipticity values (θ) when calculating mean residue ellipticities (MREs) using Equation 6: (6) MRE=(θλ-θ0)xMw/nxlxc
Where [θ]λ is the observed ellipticity at a given wavelength λ in mdeg, [θ]0 is the ellipticity observed for the buffer, Mw =molar weight of the peptide in g mol^−1, n=number of residues; c=sample concentration (mg mL^−1); l=pathlength of the cuvette in mm. Estimates of peptide % helicity were made using Equation 7, [33] (7) %helicity=(MRE222-MREcoil)x100/-425001-3/n
where MRE222 is the MRE value at 222 nm, MREcoil=640‐45T (with T in °C)=415 deg cm^2 dmol^−1 res^−1 at 5 °C, and n is the number of backbone amide bonds including the N‐terminal acetyl.

Row | SMILES | IC50 [1] [µM] | MRE222 (mean residue ellipticity at 222 nm) [2] [deg cm^−1 dmol^−1 res^−1] | % Helicity (estimated) [2] [%] | IC50 ([1]; SD) [µM]
1 | CSCC[C@@H]1NC(=O)[C@H](CCC(=O)O)NC(=O)[C@H]([C@@H](C)O)NC(=O)[C@@H](NC(=O)[C@H](Cc2c[nH]c3ccccc23)NC(=O)[C@H](CO)NC(=O)[C@@H]2CCCN2C(=O)[C@@H]2CCCN2C(=O)[C@H](CCC(=O)O)NC(=O)[C@H](CO)NC(=O)[C@H](CO)NC(=O)[C@H](Cc2c[nH]cn2)NC(=O)[C@H](CCC(=O)O)NC(=O)[C@H](C)NC(=O)[C@H](Cc2ccccc2)NC(=O)CNC(=O)[C@H](CCCNC(=N)N)NC(=O)[C@H](CO)NC(=O)[C@@H]2CCCN2C(=O)[C@H](CO)NC(=O)[C@H](CC(C)C)NC(C)=O)CSSC[C@@H](C(=O)N[C@@H](CC(C)C)C(=O)N[C@@H](CCC(=O)O)C(=O)N[C@@H](CC(N)=O)C(=O)N[C@@H](CCC(=O)O)C(=O)N[C@@H](CC(C)C)C(=O)N[C@@H](Cc2c[nH]c3ccccc23)C(=O)NCC(N)=O)NC1=O [N-Myc 61-89 V78C/L82C ox] (Ac-LSPSRGFAEHSSEPPSWCTEMCLENELWG-NH2; disulfide 18-22) | ≥ 500 | -2823 ± 48 | 8 ± 1 | 
2 | CSCC[C@H](NC(=O)[C@H](CCC(=O)O)NC(=O)[C@@H](NC(=O)[C@@H](NC(=O)[C@H](Cc1c[nH]c2ccccc12)NC(=O)[C@H](CO)NC(=O)[C@@H]1CCCN1C(=O)[C@@H]1CCCN1C(=O)[C@H](CCC(=O)O)NC(=O)[C@H](CO)NC(=O)[C@H](CO)NC(=O)[C@H](Cc1c[nH]cn1)NC(=O)[C@H](CCC(=O)O)NC(=O)[C@H](C)NC(=O)[C@H](Cc1ccccc1)NC(=O)CNC(=O)[C@H](CCCNC(=N)N)NC(=O)[C@H](CO)NC(=O)[C@@H]1CCCN1C(=O)[C@H](CO)NC(=O)[C@H](CC(C)C)NC(C)=O)C(C)C)[C@@H](C)O)C(=O)N[C@@H](CS)C(=O)N[C@@H](CC(C)C)C(=O)N[C@@H](CCC(=O)O)C(=O)N[C@@H](CC(N)=O)C(=O)N[C@@H](CS)C(=O)N[C@@H](CC(C)C)C(=O)N[C@@H](Cc1c[nH]c2ccccc12)C(=O)NCC(N)=O [N-Myc 61-89L82C/E86C red] (Ac-LSPSRGFAEHSSEPPSWVTEMCLENCLWG-NH2) |  | -2348 ± 49 | 7 ± 1 | 120 ± 14
3 | CSCC[C@H](NC(=O)[C@H](CCC(=O)O)NC(=O)[C@@H](NC(=O)[C@@H](NC(=O)[C@H](Cc1c[nH]c2ccccc12)NC(=O)[C@H](CO)NC(=O)[C@@H]1CCCN1C(=O)[C@@H]1CCCN1C(=O)[C@H](CCC(=O)O)NC(=O)[C@H](CO)NC(=O)[C@H](CO)NC(=O)[C@H](Cc1c[nH]cn1)NC(=O)[C@H](CCC(=O)O)NC(=O)[C@H](C)NC(=O)[C@H](Cc1ccccc1)NC(=O)CNC(=O)[C@H](CCCNC(=N)N)NC(=O)[C@H](CO)NC(=O)[C@@H]1CCCN1C(=O)[C@H](CO)NC(=O)[C@H](CC(C)C)NC(C)=O)C(C)C)[C@@H](C)O)C(=O)N[C@@H](CC(C)C)C(=O)N[C@@H](CS)C(=O)N[C@@H](CCC(=O)O)C(=O)N[C@@H](CC(N)=O)C(=O)N[C@@H](CCC(=O)O)C(=O)N[C@@H](CS)C(=O)N[C@@H](Cc1c[nH]c2ccccc12)C(=O)NCC(N)=O [N-Myc 61-89L83C/L87C red] (Ac-LSPSRGFAEHSSEPPSWVTEMLCENECWG-NH2) |  | -1746 ± 74 | 6 ± 1 | 181 ± 9
4 | CC(=O)N[C@@H](CC(C)C)C(=O)N[C@@H](CO)C(=O)N1CCC[C@H]1C(=O)N[C@@H](CO)C(=O)N[C@@H](CCCNC(=N)N)C(=O)NCC(=O)N[C@@H](Cc1ccccc1)C(=O)N[C@@H](C)C(=O)N[C@@H](CCC(=O)O)C(=O)N[C@@H](Cc1c[nH]cn1)C(=O)N[C@@H](CO)C(=O)N[C@@H](CO)C(=O)N[C@@H](CCC(=O)O)C(=O)N1CCC[C@H]1C(=O)N1CCC[C@H]1C(=O)N[C@@H](CO)C(=O)N[C@@H](Cc1c[nH]c2ccccc12)C(=O)N[C@H](C(=O)N[C@H](C(=O)N[C@@H](CCC(=O)O)C(=O)N[C@@H](CS)C(=O)N[C@@H](CC(C)C)C(=O)N[C@@H](CC(C)C)C(=O)N[C@@H](CCC(=O)O)C(=O)N[C@@H](CS)C(=O)N[C@@H](CCC(=O)O)C(=O)N[C@@H](CC(C)C)C(=O)N[C@@H](Cc1c[nH]c2ccccc12)C(=O)NCC(N)=O)[C@@H](C)O)C(C)C [N-Myc 61-89M81C/N85C red] (Ac-LSPSRGFAEHSSEPPSWVTECLLECELWG-NH2) |  | -2198 ± 93 | 7 ± 1 | 164 ± 6
5 | CSCC[C@H](NC(=O)[C@H](CS)NC(=O)[C@@H](NC(=O)[C@@H](NC(=O)[C@H](Cc1c[nH]c2ccccc12)NC(=O)[C@H](CS)NC(=O)[C@@H]1CCCN1C(=O)[C@@H]1CCCN1C(=O)[C@H](CCC(=O)O)NC(=O)[C@H](CO)NC(=O)[C@H](CO)NC(=O)[C@H](Cc1c[nH]cn1)NC(=O)[C@H](CCC(=O)O)NC(=O)[C@H](C)NC(=O)[C@H](Cc1ccccc1)NC(=O)CNC(=O)[C@H](CCCNC(=N)N)NC(=O)[C@H](CO)NC(=O)[C@@H]1CCCN1C(=O)[C@H](CO)NC(=O)[C@H](CC(C)C)NC(C)=O)C(C)C)[C@@H](C)O)C(=O)N[C@@H](CC(C)C)C(=O)N[C@@H](CC(C)C)C(=O)N[C@@H](CCC(=O)O)C(=O)N[C@@H](CC(N)=O)C(=O)N[C@@H](CCC(=O)O)C(=O)N[C@@H](CC(C)C)C(=O)N[C@@H](Cc1c[nH]c2ccccc12)C(=O)NCC(N)=O [N-Myc 61-89S76C/E80C red] (Ac-LSPSRGFAEHSSEPPCWVTCMLLENELWG-NH2) |  | -2428 ± 25 | 7 ± 1 | 140 ± 18

The remaining compounds from weak to strong by IC50 ([1]; SD), led by results:

Row | IC50 [1] [µM] | MRE222 (mean residue ellipticity at 222 nm) [2] [deg cm^−1 dmol^−1 res^−1] | % Helicity (estimated) [2] [%] | IC50 ([1]; SD) [µM] | SMILES
6 |  | -2562 ± 106 | 8 ± 1 | 111 ± 5 | CSCC[C@H](NC(=O)[C@H](CS)NC(=O)[C@@H](NC(=O)[C@@H](NC(=O)[C@H](Cc1c[nH]c2ccccc12)NC(=O)[C@H](CO)NC(=O)[C@@H]1CCCN1C(=O)[C@@H]1CCCN1C(=O)[C@H](CCC(=O)O)NC(=O)[C@H](CO)NC(=O)[C@H](CO)NC(=O)[C@H](Cc1c[nH]cn1)NC(=O)[C@H](CCC(=O)O)NC(=O)[C@H](C)NC(=O)[C@H](Cc1ccccc1)NC(=O)CNC(=O)[C@H](CCCNC(=N)N)NC(=O)[C@H](CO)NC(=O)[C@@H]1CCCN1C(=O)[C@H](CO)NC(=O)[C@H](CC(C)C)NC(C)=O)C(C)C)[C@@H](C)O)C(=O)N[C@@H](CC(C)C)C(=O)N[C@@H](CC(C)C)C(=O)N[C@@H](CS)C(=O)N[C@@H](CC(N)=O)C(=O)N[C@@H](CCC(=O)O)C(=O)N[C@@H](CC(C)C)C(=O)N[C@@H](Cc1c[nH]c2ccccc12)C(=O)NCC(N)=O [N-Myc 61-89E80C/E84C red] (Ac-LSPSRGFAEHSSEPPSWVTCMLLCNELWG-NH2)
7 |  | -2223 ± 37 | 7 ± 1 | 103 ± 11 | CSCC[C@H](NC(=O)[C@H](CCC(=O)O)NC(=O)[C@@H](NC(=O)[C@@H](NC(=O)[C@H](Cc1c[nH]c2ccccc12)NC(=O)[C@H](CO)NC(=O)[C@@H]1CCCN1C(=O)[C@@H]1CCCN1C(=O)[C@H](CCC(=O)O)NC(=O)[C@H](CO)NC(=O)[C@H](CO)NC(=O)[C@H](Cc1c[nH]cn1)NC(=O)[C@H](CCC(=O)O)NC(=O)[C@H](C)NC(=O)[C@H](Cc1ccccc1)NC(=O)CNC(=O)[C@H](CCCNC(=N)N)NC(=O)[C@H](CO)NC(=O)[C@@H]1CCCN1C(=O)[C@H](CO)NC(=O)[C@H](CC(C)C)NC(C)=O)C(C)C)[C@@H](C)O)C(=O)N[C@@H](CC(C)C)C(=O)N[C@H]1CSSC[C@@H](C(=O)N[C@@H](Cc2c[nH]c3ccccc23)C(=O)NCC(N)=O)NC(=O)[C@H](CCC(=O)O)NC(=O)[C@H](CC(N)=O)NC(=O)[C@H](CCC(=O)O)NC1=O [N-Myc 61-89L83C/L87C ox] (Ac-LSPSRGFAEHSSEPPSWVTEMLCENECWG-NH2; disulfide 23-27)
